# Assay results from patent publication US20140187423A1, “Fungicidal substituted 1--1H-[1,2,4]triazole compounds” (BASF SE, priority 2011, published 2014).
# Columns and labels:
# Phakopsora pachyrhizi = assay: Green house G1: protective control of soy bean rust on soy beans caused by Phakopsora pachyrhizi (Phakpa P2); format: in vivo; details: soy bean seedlings sprayed 2 days before inoculation, % diseased leaf area, untreated control 70
# Procedure: The spray solutions were prepared in several steps:
# The stock solution were prepared: a mixture of acetone and/or dimethylsulfoxide and the wetting agent/emulsifier Wettol, which is based on ethoxylated alkylphenoles, in a relation (volume) solvent-emulsifier of 99 to 1 was added to 25 mg of the compound to give a total of 5 ml. Water was then added to total volume of 100 ml. This stock solution was diluted with the described solvent-emulsifier-water mixture to the given concentration.
# G1. Protective control of soy bean rust on soy beans caused by Phakopsora pachyrhizi (Phakpa P2)
# Leaves of pot-grown soy bean seedlings were sprayed to run-off with an aqueous suspension, containing the concentration of active ingredient or their mixture as described below. The plants were allowed to air-dry. The trial plants were cultivated for 2 days in a greenhouse chamber at 23-27° C. and a relative humidity between 60 and 80%. Then the plants were inoculated with spores of Phakopsora pachyrhizi. To ensure the success the artificial inoculation, the plants were transferred to a humid chamber with a relative humidity of about 95% and 20 to 24° C. for 24 h. The trial plants were cultivated for fourteen days in a greenhouse chamber at 23-27° C. and a relative humidity between 60 and 80%. The extent of fungal attack on the leaves was visually assessed as % diseased leaf area.
# Septoria tritici = assay: Green house G2: preventative control of leaf blotch on wheat caused by Septoria tritici (Septtr P7); format: in vivo; details: wheat seedlings sprayed 7 days before inoculation, % diseased leaf area, untreated control 70
# Procedure: The spray solutions were prepared in several steps: The stock solution were prepared: a mixture of acetone and/or dimethylsulfoxide and the wetting agent/emulsifier Wettol, which is based on ethoxylated alkylphenoles, in a relation (volume) solvent-emulsifier of 99 to 1 was added to 25 mg of the compound to give a total of 5 ml. Water was then added to total volume of 100 ml. This stock solution was diluted with the described solvent-emulsifier-water mixture to the given concentration. G2. Preventative control of leaf blotch on wheat caused by Septoria tritici (Septtr P7) Leaves of pot-grown wheat seedling were sprayed to run-off with an aqueous suspension of the active compound or their mixture, prepared as described. The plants were allowed to air-dry. Seven days later the plants were inoculated with an aqueous spore suspension of Septoria tritici. Then the trial plants were immediately transferred to a humid chamber at 18-22° C. and a relative humidity close to 100%. After 4 days the plants were transferred to a chamber with 18-22° C. and a relative humidity close to 70%. After 4 weeks the extent of fungal attack on the leaves was visually assessed as % diseased leaf area.
smiles,measurement,setting,value
CCOC(Cn1cncn1)c1ccc(Oc2ccc(Cl)cc2)cc1Cl (centres unmarked) [prior art compound],Disease (%) at 16 ppm Phakpa P2,Phakopsora pachyrhizi,70%
same,Disease (%) at 16 ppm Septtr P7,Septoria tritici,50%
